Results on four compounds are retold here after ChEMBL document CHEMBL5120801, “Targeting Bromodomain-Selective Inhibitors of BET Proteins in Drug Discovery and Development” (J Med Chem, 2022).

For experiment [1], the system named is MV4-11. Kind of experiment: Antiproliferative activity against human MV4-11 cells by CCK-8 assay. The experiment is classed as functional, cell-based. For orientation: Tetrazolium assays rely on reduction of a dye to a coloured formazan, in cell work by metabolically active cells.
In experiment [2] the target is T1, Bromodomain-containing protein 4 (Homo sapiens, UniProt O60885). Kind of experiment: Binding affinity to BRD4-BD2 (unknown origin).
The target in experiment [3] is T1, Bromodomain-containing protein 4. Kind of experiment: Binding affinity to BRD4-BD1 (unknown origin).
The target in experiment [4] is T2, Interleukin-1 beta (Mus musculus, UniProt P10749).
T2 sequence (P10749 whole entry): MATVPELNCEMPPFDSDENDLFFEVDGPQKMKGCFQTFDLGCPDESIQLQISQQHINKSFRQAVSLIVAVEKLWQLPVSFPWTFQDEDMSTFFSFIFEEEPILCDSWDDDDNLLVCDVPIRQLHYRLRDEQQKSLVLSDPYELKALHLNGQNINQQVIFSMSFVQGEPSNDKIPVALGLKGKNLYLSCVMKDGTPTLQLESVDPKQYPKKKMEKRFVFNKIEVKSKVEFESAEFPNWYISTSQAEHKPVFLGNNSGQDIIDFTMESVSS
Kind of experiment: Inhibition of IL-1beta in mouse BMDM cells. The experiment is classed as cell-based.

Experiment [5] has as its system MV4-11. Kind of experiment: Antiproliferative activity against human MV4-11 cells by Cell Titer Glo assay. The experiment is classed as functional, cell-based. In general terms: Cellular ATP, detected with luciferase, serves as a proxy for viable cell number.

Each structure is given as a SMILES string.

In experiment [1], `O=c1cc(-c2ccc(O)c(O)c2)oc2c(O)c(O)ccc12` registered an IC50 of 30200 nM.
With `CCNC(=O)C1=CC2C(c3cc(S(=O)(=O)CC)ccc3Oc3c(C)cc(F)cc3C)=CN(C)C(=O)C2N1` (stereo not given), the Ki is 1.3 nM in experiment [2] and 79 nM in experiment [3].
Compound `COc1cc(OC)c2c(=O)[nH]c(-c3cc(C)c(OCCN4CCCC4)c(C)c3)nc2c1` returned an IC50 in experiment [4] of 2100 nM.
`CC(=O)N1c2ccc(-c3cc[nH]n3)cc2[C@H](Nc2ccc(C#N)cc2)C[C@@H]1C` showed an IC50 in experiment [5] of 8 nM. That is a single-digit nanomolar value.

The term IC50 denotes the concentration needed to halve the response being measured. For orientation: Ki means a dissociation constant, usually derived from enzyme kinetics or from competition with a known ligand. A higher Ki goes with weaker binding.
